# Data from patent US9931315B2, “Method of selectively inhibiting Ras-mediated tumor growth in humans” (ADT PHARMACEUTICALS, INC., priority 2014, dated 2018).
# Like-named read-outs stand apart in the source and are kept apart here.
# How the values were obtained:
# HT-29 colon cancer cells = test: Cell growth inhibition (CellTiter-Glo ATP assay), HT-29 cells with wild-type Ras; assay type: cell-based, human
# Description: (§1) This example illustrates cell growth assays employed in the present invention.
# (§2) Normal rat kidney (NRK) and Ki-Ras transformed NRK cells (K-NRK) were obtained from ATCC, and were cultured according to supplier recommendations. CellTiter-Glo ATP cell growth assay reagents were obtained from Promega and used according to the manufacturer's protocol. Inhibitors of EGFR, Raf, and MEK were obtained from Selleck Chemicals. Cells were plated at a density of 5,000 cells per well in 96-well microplates or 1,250 cells per well in 384-well plates, and allowed to attach for at least 4 h. Test compounds were dissolved in dimethyl sulfoxide (DMSO), and this working stock was further diluted in growth medium for addition to cell cultures. Serial dilutions of the test compound were prepared in growth medium containing an equal amount of DMSO not exceeding 0.2% final concentration. Each compound concentration was tested in at least 3 separate samples per cell line. At the end of a 3-day treatment period, growth inhibition was analyzed using a bioluminescent assay of ATP concentration (Promega CellTiter-Glo) according to the manufacturer's protocol. Resulting luminescence was measured using the luminescence cartridge of the Molecular Devices Spectramax Paradigm microplate reader. Relative growth inhibition for each sample was determined by comparison with the values obtained for vehicle treated control samples. Growth inhibition values were plotted with the GraphPad Prism5 software using the 4-parameter logistic fit to obtain IC50 values, which corresponds to the growth inhibitory potency of the compound.
# (§3) This example illustrates effects of exemplary compounds of the present invention on cancer cells having activated or mutated Ras compared to wild-type (WT) Ras. […] A549 lung cancer cells, which harbor a mutation in the K-Ras oncogene were treated for three days with the compounds.
# (§4) Cells were seeded in 384-well plates and allowed to attach. Ten-fold serial dilutions of compounds were tested. Each compound concentration was tested in at least 3 separate samples per cell line.
# Caco-2 cells = test: Cell growth inhibition (CellTiter-Glo), Caco-2 colorectal cells with wild-type Ras; assay type: cell-based, human; details: 384-well plates
# A549 lung cancer cells = test: Cell growth inhibition (CellTiter-Glo ATP assay), A549 cells with mutant K-Ras; assay type: cell-based, human; details: for IC50: Homo sapiens, A549, 72 h, growth inhibition, three days treatment, K-Ras mutant lung cancer cells, read-out: A549 (Ras-activated) IC50; for Selectivity HT-29/A549: ratio IC50 HT-29 (WT Ras) / IC50 A549 (Ras-activated)
# Description: This example illustrates cell growth assays employed in the present invention. Cells used in such assays included A-549, HT-29, MDA-MB-231, Colo-205, Caco2, HCT-116, SW-480, and DLD-1 human cancer cells obtained from the American Type Culture Collection (ATCC).
# as §2, with “Human tumor cells were cultured using standard methods in RPMI-1640 growth medium supplemented with 5% fetal bovine serum (FBS). Normal” for “Normal”
# as §3
# SW-480 cells = test: Cell growth inhibition (CellTiter-Glo), SW-480 colorectal cells with activated Ras; assay type: cell-based, human; details: for IC50: 384-well plates; for Selectivity Caco-2/SW-480: ratio IC50 Caco-2 (WT Ras) / IC50 SW-480 (Ras activated)
# Description: as §1, §2
# The growth inhibitory activity of the compounds was tested using the CellTiter-Glo assay. Cells were seeded in 384-well plates and allowed to attach, then ten-fold serial dilutions of compounds were tested. Each concentration was tested in at least 3 separate samples per cell line.
# as §4
# [1] = test system: HCT-116 colon tumor cells; test: Cell growth inhibition (CellTiter-Glo), HCT-116 colon tumor cells expressing mutant Ras; assay type: cell-based, human; details: for HT-29/HCT-116 selectivity values: ratio IC50 HT-29 (WT Ras) / IC50 HCT-116 (mutant Ras), 5000 cells/well, 96-well plates
# Description: This example illustrates cell growth assays employed in the present invention. […] Normal rat kidney (NRK) and Ki-Ras transformed NRK cells (K-NRK) were obtained from ATCC, and were cultured according to supplier recommendations. CellTiter-Glo ATP cell growth assay reagents were obtained from Promega and used according to the manufacturer's protocol. Inhibitors of EGFR, Raf, and MEK were obtained from Selleck Chemicals. Cells were plated at a density of 5,000 cells per well in 96-well microplates or 1,250 cells per well in 384-well plates, and allowed to attach for at least 4 h. Test compounds were dissolved in dimethyl sulfoxide (DMSO), and this working stock was further diluted in growth medium for addition to cell cultures. Serial dilutions of the test compound were prepared in growth medium containing an equal amount of DMSO not exceeding 0.2% final concentration. Each compound concentration was tested in at least 3 separate samples per cell line. At the end of a 3-day treatment period, growth inhibition was analyzed using a bioluminescent assay of ATP concentration (Promega CellTiter-Glo) according to the manufacturer's protocol. Resulting luminescence was measured using the luminescence cartridge of the Molecular Devices Spectramax Paradigm microplate reader. Relative growth inhibition for each sample was determined by comparison with the values obtained for vehicle treated control samples. […] This example illustrates use of well-established human colon tumor cell lines with widely divergent Ras activation status to determine selectivity values for exemplary compounds of the present invention. […] Cells were plated at 5000 cells/well in 96-well plates, and viable cell numbers were measured using the Cell Titer Glo ATP luminescence assay (Promega). […] Cells were seeded in 384-well plates and allowed to attach. Ten-fold serial dilutions of compounds were tested. Each compound concentration was tested in at least 3 separate samples per cell line.
# COLO-205 cells = test: Cell growth inhibition (CellTiter-Glo), COLO-205 colorectal cells; assay type: cell-based, human; details: known Ras pathway inhibitors, 384-well plates, Table 4
# DLD-1 cells = test: Cell growth inhibition (CellTiter-Glo), DLD-1 colorectal cells; assay type: cell-based, human; details: known Ras pathway inhibitors, 384-well plates, Table 4
# [2] = test system: panel of colorectal cancer cell lines; test: Growth inhibition of known Ras pathway inhibitors across the colorectal cell line panel, pattern versus Ras activation; assay type: cell-based, human; details: HCT-116, DLD-1, SW-480, Caco-2, HT-29, COLO-205 panel
# Description: This example illustrates non-selective growth inhibition with known Ras pathway inhibitors which are not compounds of the present invention. In particular, the growth inhibitory activity of commercially available compounds which are active in the Ras signal transduction pathway were tested in the same panel of cell lines using the CellTiter-Glo assay. Cells were seeded in 384-well plates and allowed to attach. Ten-fold serial dilutions of compounds were tested. Each compound concentration was tested in at least 3 separate samples per cell line.
# [3] = test system: cells expressing oncogenic H-Ras; details: NIH probe report, cited from earlier work
# [4] = Homo sapiens, HT-29, growth inhibition, colon cancer cells with wild-type Ras, Table 2, read-out: HT-29 (WT Ras) IC50
# [5] = Homo sapiens, Caco-2, growth inhibition, Table 3, read-out: Caco-2 (WT Ras) IC50
# [6] = Homo sapiens, SW480, growth inhibition, Table 3, read-out: SW-480 (Ras Activated IC50)
Compound,IC50 (HT-29 colon cancer cells; [4]) [nM],IC50 (Caco-2 cells; [5]) [nM],IC50 (A549 lung cancer cells) [nM],Selectivity HT-29/A549 (A549 lung cancer cells),IC50 (SW-480 cells; [6]) [nM],Selectivity Caco-2/SW-480 (SW-480 cells),HT-29/HCT-116 selectivity values [1],further results
"COc1ccc2c(c1)C(CC(=O)NCc1ccco1)=C(C)/C2=C/c1cc(OC)c(O)c(OC)c1 [Compound 006, (Z)—N-(furan-2-ylmethyl)-2-(1-(4-hydroxy-3,5-dimethoxybenzylidene)-5-methoxy-2-methyl-1H-inden-3-yl)acetamide]",8130,428,11,739,2.85,150,43,–
"COc1cc(/C=C2/C(C)=C(CC(=O)NCc3ccco3)c3cc(F)ccc32)cc(OC)c1O [Compound 007, (Z)-2-(5-fluoro-1-(4-hydroxy-3,5-dimethoxybenzylidene)-2-methyl-1H-inden-3-yl)-N-(furan-2-ylmethyl)acetamide]",280,1.97,0.86,326,0.37,5,92,–
"COc1cc(/C=C2/C(C)=C(CC(=O)NCc3ccccn3)c3cc(F)ccc32)cc(OC)c1O [Compound 010, (Z)-2-(5-fluoro-1-(4-hydroxy-3,5-dimethoxybenzylidene)-2-methyl-1H-inden-3-yl)-N-(pyridin-2-ylmethyl)acetamide]",712,33.8,170,4,2.1,16,141,–
"COc1cc(/C=C2/C(C)=C(CC(=O)NCc3cccnc3)c3cc(F)ccc32)cc(OC)c1O [Compound 011, (Z)-2-(5-fluoro-1-(4-hydroxy-3,5-dimethoxybenzylidene)-2-methyl-1H-inden-3-yl)-N-(pyridin-3-ylmethyl)acetamide]",2940,47.6,15,196,21.3,2,168,–
"O=C1Nc2ccc(I)cc2/C1=C/c1cc(Br)c(O)c(Br)c1 [GW5074, reference compound]",–,–,–,–,–,–,–,"IC50 (HT-29 colon cancer cells; known Ras pathway inhibitors, 384-well plates, Table 4, read-out: HT-29 IC50): 19100 nM; IC50 (Caco-2 cells; known Ras pathway inhibitors, Table 4, read-out: Caco-2 IC50): > 20000 nM; IC50 (COLO-205 cells): 7100 nM; IC50 (SW-480 cells; known Ras pathway inhibitors, Table 4, read-out: SW-480 IC50): 8070 nM; IC50 (DLD-1 cells): 7750 nM; selectivity with regard to Ras activation [2]: did not show selectivity; IC50 ([1]; known Ras pathway inhibitors, 384-well plates, Table 4): 15800 nM"
Cc1onc(C(=O)N2CCN(C(c3ccc(Cl)cc3)c3ccc(Cl)cc3)CC2)c1[N+](=O)[O-] [ML210],–,–,–,–,–,–,–,"selectivity versus cells lacking oncogenic Ras [3]: 4 fold; IC50 ([3]; read-out: IC50, growth of cells expressing mutant Ras): 71 nM"
Cn1cnc2c(F)c(Nc3ccc(Br)cc3Cl)c(C(=O)NOCCO)cc21 [Selumetinib],–,–,–,–,–,–,–,"IC50 (DLD-1 cells; Homo sapiens, DLD-1): 20400 nM"
